Reference: ChEMBL document CHEMBL5223175, “Discovery of novel 2-oximino-2-indolylacetamide derivatives as potent anticancer agents capable of inducing cell autophagy and ferroptosis” (Bioorg Med Chem, 2023)
Activity calls are given as the source filed them. No cut-off for these calls is given here.

What was measured:
HeLa = experiment: Antiproliferative activity against human HeLa cells assessed as cell viability at 80 uM incubated for 72 hrs by CCK-8 assay; format: functional; details: read-out: Activity
CAL-27 [1] = experiment: Antiproliferative activity against human CAL-27 cells assessed as reduction in cell viability incubated for 72 hrs by CCK-8 assay; format: functional, cell-based; details: CAL-27, 72 h
5-8F [2] = experiment: Induction of ROS generation in human 5-8F cells at 10 to 30 uM after 48 hrs by fluorescence microscopy analysis; format: functional, cell-based; details: dose 10-30 µM
5-8F [3] = experiment: Antiproliferative activity against human 5-8F cells assessed as reduction in cell viability at 5 to 40 uM incubated for 48 hrs by CCK-8 assay; format: functional, cell-based; details: dose 5-40 µM
[4] = Toxicity in BALB/c mouse xenografted with human 5-8F cells assessed as change in spleen morphology at 10 to 20 mg/kg, ip administered daily by H and E staining based assay; format: organism-based; details: in vivo, dose 10-20 mg/kg
5-8F [5] = experiment: Induction of apoptosis in human 5-8F cells at 30 uM incubated for 48 hrs by Annexin V-FITC and PI staining based flow cytometry analysis; format: functional
5-8F [6] = experiment: Induction of apoptosis in human 5-8F cells assessed as downregulation of Bcl-2 expression at 10 to 30 uM incubated for 48 hrs by Western blotting analysis; format: functional, cell-based; details: dose 10-30 µM
FaDu = experiment: Antiproliferative activity against human FaDu cells assessed as reduction in cell viability incubated for 72 hrs by CCK-8 assay; format: functional, cell-based
5-8F [7] = experiment: Induction of lipid peroxidation in human 5-8F cells at 30 uM after 48 hrs by BODIPY C11 staining based fluorescence microscopy analysis; format: functional, cell-based
5-8F [8] = experiment: Induction of apoptosis in human 5-8F cells assessed as increase in dead cells incubated for 48 hrs by microscopic analysis; format: functional, cell-based; details: dose 10-30 µM
5-8F [9] = experiment: Upregulation of p38 MAPK phosphorylation in human 5-8F cells at 10 to 30 uM by Western blotting analysis; format: functional, cell-based; details: dose 10-30 µM
5-8F [10] = experiment: Antiproliferative activity against human 5-8F cells assessed as reduction in cell viability incubated for 72 hrs by CCK-8 assay; format: functional, cell-based
5-8F [11] = experiment: Induction of ferroptosis in human 5-8F cells assessed as change in mitochondrial morphology at 30 uM incubated for 48 hrs by TEM analysis; format: functional, cell-based
5-8F [12] = experiment: Induction of autophagy in human 5-8F cells assessed as increase in Beclin-1 expression at 10 to 30 uM by Western blotting analysis; format: functional, cell-based; details: dose 10-30 µM
5-8F [13] = experiment: Induction of ferroptosis in human 5-8F cells assessed as decrease in GSH level at 10 to 30 uM incubated for 48 hrs by Western blotting analysis; format: functional, cell-based; details: dose 10-30 µM
SK-HEP1 = experiment: Antiproliferative activity against human SK-HEP1 cells assessed as cell viability at 80 uM incubated for 72 hrs by CCK-8 assay; format: functional; details: read-out: Activity
5-8F [14] = experiment: Induction of ferroptosis in human 5-8F cells assessed as increase in membrane density at 30 uM incubated for 48 hrs by TEM analysis; format: functional, cell-based
5-8F [15] = experiment: Induction of apoptosis in human 5-8F cells assessed as appearance of floating cells incubated for 48 hrs by microscopic analysis; format: functional, cell-based; details: dose 10-30 µM
5-8F [16] = experiment: Antiproliferative activity against human 5-8F cells assessed as cell viability at 80 uM incubated for 72 hrs by CCK-8 assay; format: functional; details: read-out: Activity
5-8F [17] = experiment: Induction of autophagy in human 5-8F cells assessed as decrease in p62 expression at 10 to 30 uM by Western blotting analysis; format: functional, cell-based; details: dose 10-30 µM
5-8F [18] = experiment: Antitumor activity against human 5-8F cells xenografted in BALB/c mouse assessed as decrease in Ki67 expression at 10 to 20 mg/kg, ip administered daily; format: functional, organism-based; details: dose 10-20 mg/kg
CAL-27 [19] = experiment: Antiproliferative activity against human CAL-27 cells assessed as reduction in Ki67 expression at 10 to 30 uM by Western blotting analysis; format: functional, cell-based; details: dose 10-30 µM

In the case of `Cn1cc(/C(=N\O)C(=O)Nc2ccc(Cl)cc2)c2ccccc21`, the viability at 80 µM (HeLa) is reported as 12.3%, the IC50 (CAL-27 [1]) is reported as 13.7 µM and the Activity (5-8F [2]) is reported as “Active”. For the same molecule, the Activity (5-8F [3]) was “Active”, the Activity [4] was “Non-Toxic” and the Activity (5-8F [5]) was 29.1%. For the same molecule, the Activity (5-8F [6]) was “Active”, the IC50 (FaDu) was 22.2 µM and the Activity (5-8F [7]) was “Active”. The Activity (5-8F [8]) was “Dose-Dependent Effect”, the Activity (5-8F [9]) was “Active” and the IC50 (5-8F [10]) was 9.43 µM. For the same molecule, the Activity (5-8F [11]) was “Active”, the Activity (5-8F [12]) was “Active” and the Activity (5-8F [13]) was “Active”. The viability at 80 µM (SK-HEP1) was 20.9%, the Activity (5-8F [14]) was “Active” and the Activity (5-8F [15]) was “Dose-Dependent Effect”. For the same molecule, the viability at 80 µM (5-8F [16]) was 7.8%, the Activity (5-8F [17]) was “Active” and the Activity (5-8F [18]) was “Active”. The Activity (CAL-27 [19]) was “Active”.
